From patent US20240197729A1, “ALK-5 Inhibitors and Uses Thereof” (Sumitomo Pharma Oncology, Inc., priority 2021, published 2024) come the findings set out here.

Test [1] relates to A549 lung fibroblasts. The test is described as follows: Epithelial to mesenchymal transition gene expression in A549. Format: cell-based. The following applies: 5 ng/ml TGF-beta1, 48 h, up to 5 micromolar. How it is done: To evaluate whether Compounds 01 and 04 could inhibit epithelial to mesenchymal transition (EMT), an in vitro model using A549 lung fibroblasts was utilized. A549 cells were purchased from ATCC (CCL-185), and grown in RPMI media supplemented with 10 percent fetal bovine serum (FBS). On the day of the experiment, ten thousand A549 cells were seeded in eighty microliters total volume into a flat, tissue culture coated, ninety-six-well plate. Drugs, including positive control compounds vactosertib, PF-06952229 and LY3200882, were added in an eight point, one to three dilution series with the highest concentration of each drug being five micromolar, bringing the total volume of each well to ninety microliters. DMSO, which served to dissolve the 10 millimolar stock solution of each drug, was normalized across all wells After one hour of drug pretreatment, recombinant human TGF-beta1 was added to a final concentration of five nanograms per milliliter, bringing the volume to one hundred microliters. Recombinant human TGF-beta 1 was purchased from R&D Systems (7754-BH-005) and its stock solution was prepared according to manufacturer's instructions and diluted in RPMI media supplemented with 10% FBS. The ninety-six well plate with one hundred microliter volume was incubated at 37° C. at 5% CO2 for forty-eight hours. At the end of the incubation period, gene expression levels of various EMT markers were assessed using a custom designed QuantiGene Plex Gene Expression Assay. The genes chosen were CDH1 (E-cadherin), CDH2 (N-Cadherin), SNAI1 (Snail), SNAI2 (Slug), VIM (Vimentin), SPARC, GALNT6, CTNNB1 (beta-catenin), TGFB1, and MAML3.
Briefly, cell lysate was prepared using the QuantiGene Sample Processing Kit —Cultured Cells (QS0100) in the ninety-six well plate. Cell lysates were then subjected to bead hybridization, multiple probe hybridization steps and SAPE labeling following manufacturer's instruction. The plate was read on a Luminex MAGPIX instrument.

The test system of test [2] is TGF-β-induced pan-collagen expression. In words: In vitro 3D liver fibrosis assay (HepaRG NP 3D model). Format: cell-based. The following applies: 1 μM, 100 ng/mL TGF-β1, 72 hours. How it is done:
An additional fibrosis assay was carried out with selected compounds using the Visikol OpenLiver™ HepaRG™ NP 3D model directed at fibrosis. The OpenLiver™ HepaRG™ NP 3D model features the ability to recapitulate a number of liver disease pathologies. Whether evaluating the disease-inducing liability of a compound or exploring targets to exploit for therapeutic amelioration of disease state, the HepaRG™ NP 3D model is capable of recapitulating disease features such hepatocellular lipid accumulation, nonparenchymal cell phenotype shift, and collagen matrix deposition.
HepaRGs (Lonza, NSHPRG, Lot #HNS1013) and non-parenchymal (NP) cells (Stellates, Kupffers and LSECS (Lonza, Lot HUM201221)) were thawed, assessed for viability and seeded at a hepatocyte to NP cell ratio of 60:40 into an ultra-low attachment round-bottom plate (Corning, 4515). The cells were initially cultured in William's E medium supplemented with HepaRG Thaw, Plate & General Purpose Supplement (Thermo Fisher, HPRG770) and GlutaMax (Thermo Fisher, 35050061) overnight. The next day the medium was half exchanged with William's E medium supplemented with HepaRG Maintenance Supplement (Thermo Fisher, HPRG720) and GlutaMax (Thermo Fisher, 35050061). […]
Clearing the spheroid with Visikol HISTO-M™ allows for clear images throughout the spheroid volume, therefore allowing the entire z-stack to be analyzed. […]

As for `Cc1nn(CC(F)(F)F)cc1Nc1cc(Nc2cnnc3c(C)cccc23)ccn1` [Compound 01, N2-[3-methyl-1-(2,2,2-trifluoroethyl)-1H-pyrazol-4-yl]-N4-(8-methylcinnolin-4-yl)pyridine-2,4-diamine], in test [1], the “CDH1 (E-Cadherin) gene expression” value is on record as “inhibition of downregulation of CDH1 (E-Cadherin)” and the “expression of the nine genes induced with EMT (CDH2, SNAI1, SNAI2, VIM, SPARC, GALNT6, CTNNB1, TGFB1, MAML3)” value was “inhibition of induction of the nine genes that are induced with EMT”. Also, the TGF-β-induced pan-collagen expression result in test [2] is recorded as “inhibited TGF-β-induced pan-collagen expression”.
Taken in the same sequence, the figures for `Clc1cccc2c(Nc3ccnc(Nc4cccc(N5CCOCC5)c4)c3)cnnc12` [Compound 04, N4-(8-chlorocinnolin-4-yl)-N2-[3-(morpholin-4-yl)phenyl]pyridine-2,4-diamine] were “inhibition of downregulation of CDH1 (E-Cadherin)”, “inhibition of induction of the nine genes that are induced with EMT” and “inhibited TGF-β-induced pan-collagen expression”.
